Values joined by “and” are separate entries in the source; they are usually repeats but may differ in a detail not shown here. Identical values can stand only once. Toxic doses and inconclusive results are not listed. Cut-off read from the data, not from the text of the source: active = T/C of 150% or more; inactive = T/C below 125%.
Tested on: L1210 leukemia ip in BDF1 mice, survival T/C
Experiment: NCI In Vivo Anticancer Drug Screen. Data for tumor model L1210 Leukemia (intraperitoneal) in B6D2F1 (BDF1) mice
Conditions: endpoint: mean survival time, higher = longer survival
Summary of the method: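 Each compound was tested against a transplantable tumor grown in mice. The endpoint was survival, with treated animals benchmarked against vehicle controls as a simple ratio.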

[1] = dose: 100.0 mg/kg/injection, schedule: Q01DX001 (ip), vehicle: carboxymethylcellulose (CMC)
[2] = dose: 200.0 mg/kg/injection, schedule: Q01DX001 (ip), vehicle: carboxymethylcellulose (CMC)
[3] = dose: 400.0 mg/kg/injection, schedule: Q01DX001 (ip), vehicle: carboxymethylcellulose (CMC)
[4] = dose: 100.0 mg/kg/injection, schedule: Q01DX009 (ip), vehicle: Klucel (hydroxypropylcellulose) (HPC)
[5] = dose: 100.0 mg/kg/injection, schedule: Q04DX003 (ip), vehicle: Klucel (hydroxypropylcellulose) (HPC)
[6] = dose: 200.0 mg/kg/injection, schedule: Q01DX009 (ip), vehicle: Klucel (hydroxypropylcellulose) (HPC)
[7] = dose: 200.0 mg/kg/injection, schedule: Q04DX003 (ip), vehicle: Klucel (hydroxypropylcellulose) (HPC)
[8] = dose: 400.0 mg/kg/injection, schedule: Q01DX009 (ip), vehicle: Klucel (hydroxypropylcellulose) (HPC)
[9] = dose: 400.0 mg/kg/injection, schedule: Q04DX003 (ip), vehicle: Klucel (hydroxypropylcellulose) (HPC)
[10] = dose: 100.0 mg/kg/injection, schedule: Q04DX003 (ip), vehicle: saline
[11] = dose: 12.5 mg/kg/injection, schedule: Q04DX003 (ip), vehicle: saline
[12] = dose: 25.0 mg/kg/injection, schedule: Q04DX003 (ip), vehicle: saline
[13] = dose: 50.0 mg/kg/injection, schedule: Q04DX003 (ip), vehicle: saline
[14] = dose: 25.0 mg/kg/injection, schedule: Q01DX009 (ip), vehicle: saline

Measured: T/C

Oc1ccccc1C=Nc1ccc(Cl)cc1
inactive: dose: 100.0 mg/kg/injection, schedule: Q04DX002 (ip), vehicle: saline with Tween-80 105 % of control | dose: 200.0 mg/kg/injection, schedule: Q04DX002 (ip), vehicle: saline with Tween-80 105 % of control | dose: 400.0 mg/kg/injection, schedule: Q04DX002 (ip), vehicle: saline with Tween-80 97 % of control

Cc1cc(Nc2ncnc(Cl)c2N)ccc1N
inactive: [1] 93 % of control | [2] 98 % of control | [3] 96 % of control

Cn1ncc2c(N)nc(-c3ccccc3)nc21
inactive: dose: 100.0 mg/kg/injection, schedule: Q04DX003 (ip), vehicle: other 97 % of control

CSc1ncc2c(Cl)nn(C)c2n1
inactive: dose: 37.5 mg/kg/injection, schedule: Q01DX001 (ip), vehicle: Klucel (hydroxypropylcellulose) (HPC) 94 % of control | dose: 75.0 mg/kg/injection, schedule: Q01DX001 (ip), vehicle: Klucel (hydroxypropylcellulose) (HPC) 92 % of control | dose: 150.0 mg/kg/injection, schedule: Q01DX001 (ip), vehicle: Klucel (hydroxypropylcellulose) (HPC) 90 % of control

O=C(Cc1ccccc1)OCCc1ccccc1
inactive: [4] 98 % of control and 105 % of control | [5] 94 % of control and 98 % of control | [6] 97 % of control and 89 % of control | [7] 94 % of control and 100 % of control | [8] 101 % of control and 104 % of control | [9] 96 % of control and 100 % of control

COc1ccc2c(c1)C/C(=N\O)C2=O
inactive: dose: 100.0 mg/kg/injection, schedule: Q04DX003 (ip), vehicle: saline with Tween-80 102 % of control

COc1cc(C(=O)OCCN(C(C)C)C(C)C)cc(OC)c1OC
inactive: [10] 101 % of control | dose: 200.0 mg/kg/injection, schedule: Q04DX003 (ip), vehicle: saline 95 % of control

CC1(C)C[N+](Cc2ccccc2)(Cc2ccccc2)C1
inactive: dose: 0.78 mg/kg/injection, schedule: Q01DX009 (ip), vehicle: saline 100 % of control | dose: 1.56 mg/kg/injection, schedule: Q01DX009 (ip), vehicle: saline 102 % of control | dose: 3.12 mg/kg/injection, schedule: Q01DX009 (ip), vehicle: saline 100 % of control | dose: 6.25 mg/kg/injection, schedule: Q01DX009 (ip), vehicle: saline 103 % of control | [11] 112 % of control | [12] 98 % of control | [13] 97 % of control

[Cu+2].[NH-]C(CC(N)=O)C(=O)O.[NH-]C(CC(N)=O)C(=O)O (stereo not given)
inactive: dose: 12.5 mg/kg/injection, schedule: Q01DX009 (ip), vehicle: saline 107 % of control | [11] 92 % of control | [14] 98 % of control | [12] 94 % of control | [13] 87 % of control

COc1ccc([N+](=O)[O-])cc1NC(=O)Nc1ccc(SC)cc1
inactive: dose: 50.0 mg/kg/injection, schedule: Q01DX009 (ip), vehicle: Klucel (hydroxypropylcellulose) (HPC) 90 % of control | [4] 89 % of control | [6] 90 % of control and 92 % of control | [8] 98 % of control

C[Si](C)(C)c1c(F)c(F)cc(F)c1F
inactive: [4] 98 % of control | [5] 98 % of control | [6] 112 % of control | [7] 95 % of control | [8] 94 % of control | [9] 97 % of control

Cc1c(C)c2c(Cl)c3ccccc3nc2c2ccccc12
inactive: dose: 50.0 mg/kg/injection, schedule: Q04DX003 (ip), vehicle: Klucel (hydroxypropylcellulose) (HPC) 102 % of control | [5] 100 % of control | [7] 112 % of control | [9] 100 % of control

C1OC2CC3CC1C2C3 (stereo not given)
inactive: dose: 10.0 mg/kg/injection, schedule: Q01DX001 (ip), vehicle: acetone 107 % of control | dose: 20.0 mg/kg/injection, schedule: Q01DX001 (ip), vehicle: acetone 104 % of control | dose: 40.0 mg/kg/injection, schedule: Q01DX001 (ip), vehicle: acetone 98 % of control

CC(C)CCOC(CN)C(Cl)(Cl)Cl (stereo not given)
inactive: [14] 96 % of control and 107 % of control | dose: 25.0 mg/kg/injection, schedule: Q04DX002 (ip), vehicle: saline 98 % of control and 106 % of control | [12] 118 % of control | dose: 50.0 mg/kg/injection, schedule: Q01DX009 (ip), vehicle: saline 96 % of control and 100 % of control | dose: 50.0 mg/kg/injection, schedule: Q04DX002 (ip), vehicle: saline 95 % of control | [13] 102 % of control | dose: 100.0 mg/kg/injection, schedule: Q01DX009 (ip), vehicle: saline 98 % of control and 100 % of control | [10] 96 % of control and 109 % of control

ClCCN(CCCl)c1ccc(C=Nc2cccc(Cl)c2)cc1
inactive: dose: 50.0 mg/kg/injection, schedule: Q01DX001 (ip), vehicle: carboxymethylcellulose (CMC) 100 % of control | [1] 100 % of control | [2] 105 % of control | [3] 105 % of control

CC(=O)NS(=O)(=O)c1ccc(N=Cc2ccccc2O)cc1
inactive: [4] 101 % of control | [6] 94 % of control | [8] 100 % of control

O=C(NCCCl)NC1CCC(C(=O)O)CC1 (stereo not given)
inactive: dose: 100.0 mg/kg/injection, schedule: Q01DX001 (ip), vehicle: saline with Tween-80 97 % of control | dose: 200.0 mg/kg/injection, schedule: Q01DX001 (ip), vehicle: saline with Tween-80 100 % of control | dose: 400.0 mg/kg/injection, schedule: Q01DX001 (ip), vehicle: saline with Tween-80 94 % of control

ClCC1COC(CCc2ccccc2)O1 (stereo not given)
inactive: dose: 222.0 mg/kg/injection, schedule: Q01DX Z (ip), vehicle: saline 95 % of control | dose: 333.0 mg/kg/injection, schedule: Q01DX Z (ip), vehicle: saline 95 % of control | dose: 500.0 mg/kg/injection, schedule: Q01DX Z (ip), vehicle: saline 113 % of control

CC(=O)COc1cccc([N+](=O)[O-])c1
inactive: [4] 92 % of control | [6] 90 % of control | [8] 90 % of control

Clc1ccc(S/C=C/c2ccccc2)cc1
inactive: dose: 100.0 mg/kg/injection, schedule: Q01DX001 (ip), vehicle: Klucel (hydroxypropylcellulose) (HPC) 103 % of control | [4] 91 % of control | [5] 102 % of control | dose: 200.0 mg/kg/injection, schedule: Q01DX001 (ip), vehicle: Klucel (hydroxypropylcellulose) (HPC) 110 % of control | [6] 100 % of control | [7] 98 % of control | dose: 400.0 mg/kg/injection, schedule: Q01DX001 (ip), vehicle: Klucel (hydroxypropylcellulose) (HPC) 97 % of control | [8] 91 % of control | [9] 104 % of control

CC1=C2/C=c3\[nH]/c(c(CCC(=O)NCCN)c3C)=C\c3[nH]c(c(C)c3CCC(=O)NCCN)CC3NC(CC(=N2)C1=NCCN)C(C)=C3NCCN (stereo not given)
inactive: dose: 37.5 mg/kg/injection, schedule: Q01DX001 (ip), vehicle: saline 97 % of control | dose: 75.0 mg/kg/injection, schedule: Q01DX001 (ip), vehicle: saline 97 % of control and 111 % of control | dose: 150.0 mg/kg/injection, schedule: Q01DX001 (ip), vehicle: saline 106 % of control and 120 % of control | dose: 300.0 mg/kg/injection, schedule: Q01DX001 (ip), vehicle: saline 102 % of control

From PubChem BioAssay AID248 (DTP/NCI, 2004)
